Source: patent publication US12077503B2, “Substituted cyclic amides and their use as herbicides” (FMC CORPORATION, priority 2015, dated 2024)

Assays:
Format in all cases: in vivo
[1] = test system: Kochia (Kochia scoparia); experiment: Test A preemergence; settings: Bassia scoparia, pre-emergence, 240 h, Preemergence; for pest or weed control at 31 g/ha: 31 g ai/ha, 0 to 100 scale where 0 is no effect and 100 is complete control, read-out: Kochia plant response rating; for pest or weed control at 125 g/ha: 125 g ai/ha, 0 to 100 scale (0 no effect, 100 complete control), read-out: Plant response rating, Kochia
Procedure, shortened: (§1)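 Visual injury scores from 0, no effect, to 100, complete control, were assigned versus untreated controls roughly 10 d after treatment in the greenhouse. Test chemicals, formulated with surfactant in a non-phytotoxic solvent, were applied to planted seeds as a preemergence soil spray or postemergence to one- to two-leaf plants 2 to 10 cm tall, in loam–sand soil.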

[2] = test system: barnyardgrass (Echinochloa crus-galli); experiment: Test A preemergence; settings: Echinochloa crus-galli, pre-emergence, 240 h, Preemergence; for pest or weed control at 31 g/ha: 31 g ai/ha, 0 to 100 scale where 0 is no effect and 100 is complete control, read-out: Barnyardgrass plant response rating; for pest or weed control at 125 g/ha: 125 g ai/ha, 0 to 100 scale (0 no effect, 100 complete control), read-out: Plant response rating, Barnyardgrass
Procedure, shortened: as §1

[3] = test system: giant foxtail (Setaria faberii); experiment: Test A preemergence; settings: Setaria faberi, pre-emergence, 240 h, Preemergence; for pest or weed control at 31 g/ha: 31 g ai/ha, 0 to 100 scale where 0 is no effect and 100 is complete control, read-out: Foxtail, Giant plant response rating; for pest or weed control at 125 g/ha: 125 g ai/ha, 0 to 100 scale (0 no effect, 100 complete control), read-out: Plant response rating, Foxtail, Giant
Procedure, shortened: as §1

[4] = test system: pigweed (Amaranthus retroflexus); experiment: Test A preemergence; settings: Amaranthus retroflexus, pre-emergence, 240 h, Preemergence; for pest or weed control at 31 g/ha: 31 g ai/ha, 0 to 100 scale where 0 is no effect and 100 is complete control, read-out: Pigweed plant response rating; for pest or weed control at 125 g/ha: 125 g ai/ha, 0 to 100 scale (0 no effect, 100 complete control), read-out: Plant response rating, Pigweed
[5] = test system: ragweed (common ragweed, Ambrosia elatior); experiment: Test A preemergence; settings: Ambrosia artemisiifolia, pre-emergence, 240 h, Preemergence; for pest or weed control at 31 g/ha: 31 g ai/ha, 0 to 100 scale where 0 is no effect and 100 is complete control, read-out: Ragweed plant response rating; for pest or weed control at 125 g/ha: 125 g ai/ha, 0 to 100 scale (0 no effect, 100 complete control), read-out: Plant response rating, Ragweed
Procedure, shortened: as §1

[6] = test system: ryegrass, Italian (Italian ryegrass, Lolium multiflorum); experiment: Test A preemergence; settings: Lolium multiflorum, pre-emergence, 240 h, Preemergence; for pest or weed control at 31 g/ha: 31 g ai/ha, 0 to 100 scale where 0 is no effect and 100 is complete control, read-out: Ryegrass, Italian plant response rating; for pest or weed control at 125 g/ha: 125 g ai/ha, 0 to 100 scale (0 no effect, 100 complete control), read-out: Plant response rating, Ryegrass, Italian
Procedure, shortened: as §1

[7] = test system: Galium (catchweed bedstraw, Galium aparine); experiment: Test A postemergence; settings: Galium, post-emergence, 240 h, Postemergence; for pest or weed control at 31 g/ha: 31 g ai/ha, 0 is no effect, 100 is complete control, read-out: Galium plant response rating (0 to 100 scale); for pest or weed control at 125 g/ha: 125 g ai/ha, visual injury after approx. 10 d, 0 to 100 scale, 0 no effect, 100 complete control, read-out: Plant response rating, Galium
Procedure, shortened: as §1

[8] = test system: Kochia (Kochia scoparia); experiment: Test A postemergence; settings: Bassia scoparia, post-emergence, 240 h, Postemergence; for pest or weed control at 31 g/ha: 31 g ai/ha, 0 is no effect, 100 is complete control, read-out: Kochia plant response rating (0 to 100 scale); for pest or weed control at 125 g/ha: 125 g ai/ha, visual injury after approx. 10 d, 0 to 100 scale, 0 no effect, 100 complete control, read-out: Plant response rating, Kochia
Procedure, shortened: as §1

[9] = test system: barnyardgrass (Echinochloa crus-galli); experiment: Test A postemergence; settings: Echinochloa crus-galli, post-emergence, 240 h, Postemergence; for pest or weed control at 31 g/ha: 31 g ai/ha, 0 is no effect, 100 is complete control, read-out: Barnyardgrass plant response rating (0 to 100 scale); for pest or weed control at 125 g/ha: 125 g ai/ha, visual injury after approx. 10 d, 0 to 100 scale, 0 no effect, 100 complete control, read-out: Plant response rating, Barnyardgrass
Procedure, shortened: as §1

[10] = test system: blackgrass (Alopecurus myosuroides); experiment: Test A postemergence; settings: Alopecurus myosuroides, post-emergence, 240 h, Postemergence; for pest or weed control at 31 g/ha: 31 g ai/ha, 0 is no effect, 100 is complete control, read-out: Blackgrass plant response rating (0 to 100 scale); for pest or weed control at 125 g/ha: 125 g ai/ha, visual injury after approx. 10 d, 0 to 100 scale, 0 no effect, 100 complete control, read-out: Plant response rating, Blackgrass
Procedure, shortened: as §1

[11] = test system: corn (Zea mays); experiment: Test A postemergence; settings: Zea mays, post-emergence, 240 h, Postemergence; for plant injury at 31 g/ha: 31 g ai/ha, 0 is no effect, 100 is complete control, read-out: Corn plant response rating (0 to 100 scale); for Corn plant response rating (crop injury, 0 = no effect, 100 = complete kill) at 125 g/ha: 125 g ai/ha, visual injury after approx. 10 d, 0 to 100 scale, 100 complete control
Procedure, shortened: as §1

[12] = test system: giant foxtail (Setaria faberii); experiment: Test A postemergence; settings: Setaria faberi, post-emergence, 240 h, Postemergence; for pest or weed control at 31 g/ha: 31 g ai/ha, 0 is no effect, 100 is complete control, read-out: Foxtail, Giant plant response rating (0 to 100 scale); for pest or weed control at 125 g/ha: 125 g ai/ha, visual injury after approx. 10 d, 0 to 100 scale, 0 no effect, 100 complete control, read-out: Plant response rating, Foxtail, Giant
Procedure, shortened: as §1

[13] = test system: pigweed (Amaranthus retroflexus); experiment: Test A postemergence; settings: Amaranthus retroflexus, post-emergence, 240 h, Postemergence; for pest or weed control at 31 g/ha: 31 g ai/ha, 0 is no effect, 100 is complete control, read-out: Pigweed plant response rating (0 to 100 scale); for pest or weed control at 125 g/ha: 125 g ai/ha, visual injury after approx. 10 d, 0 to 100 scale, 0 no effect, 100 complete control, read-out: Plant response rating, Pigweed
Procedure, shortened: as §1

[14] = test system: ragweed (common ragweed, Ambrosia elatior); experiment: Test A postemergence; settings: Ambrosia artemisiifolia, post-emergence, 240 h, Postemergence; for pest or weed control at 31 g/ha: 31 g ai/ha, 0 is no effect, 100 is complete control, read-out: Ragweed plant response rating (0 to 100 scale); for pest or weed control at 125 g/ha: 125 g ai/ha, visual injury after approx. 10 d, 0 to 100 scale, 0 no effect, 100 complete control, read-out: Plant response rating, Ragweed
Procedure, shortened: as §1

[15] = test system: ryegrass, Italian (Italian ryegrass, Lolium multiflorum); experiment: Test A postemergence; settings: Lolium multiflorum, post-emergence, 240 h, Postemergence; for pest or weed control at 31 g/ha: 31 g ai/ha, 0 is no effect, 100 is complete control, read-out: Ryegrass, Italian plant response rating (0 to 100 scale); for pest or weed control at 125 g/ha: 125 g ai/ha, visual injury after approx. 10 d, 0 to 100 scale, 0 no effect, 100 complete control, read-out: Plant response rating, Ryegrass, Italian
Procedure, shortened: as §1

[16] = test system: wheat (Triticum aestivum); experiment: Test A postemergence; settings: Triticum aestivum, post-emergence, 240 h, Postemergence; for plant injury at 31 g/ha: 31 g ai/ha, 0 is no effect, 100 is complete control, read-out: Wheat plant response rating (0 to 100 scale); for plant injury at 125 g/ha: 125 g ai/ha, visual injury after approx. 10 d, 0 to 100 scale, 0 no effect, 100 complete control, read-out: Plant response rating, Wheat
Procedure, shortened: as §1

[17] = test system: barnyardgrass (Echinochloa crus-galli); experiment: Test B flooded paddy test; settings: Echinochloa crus-galli, 360 h, Flood, 250 g ai/ha; visually evaluated after 13 to 15 d; read-out: Plant response rating, Barnyardgrass (0 to 100 scale where 0 is no effect and 100 is complete control)
Procedure, shortened: (§2)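 Compound goes directly into floodwater once pots are flooded 3 cm above soil, targeting plants at two leaves; the water depth is then held for the test duration. Plants sit 13–15 d in a greenhouse and are rated visually, 100 denoting complete control.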

[18] = test system: ducksalad (Heteranthera limosa); experiment: Test B flooded paddy test; settings: Heteranthera limosa, 360 h, Flood, 250 g ai/ha; visually evaluated after 13 to 15 d; read-out: Plant response rating, Ducksalad (0 to 100 scale where 0 is no effect and 100 is complete control)
Procedure, shortened: as §2

[19] = test system: rice (Oryra sativa); experiment: Test B flooded paddy test; settings: Oryza sativa, 360 h, Flood, 250 g ai/ha; visually evaluated after 13 to 15 d; read-out: Plant response rating, Rice (0 to 100 scale where 0 is no effect and 100 is complete control)
Procedure, shortened: as §2

[20] = test system: sedge, umbrella (small-flower umbrella sedge, Cyperus difformis); experiment: Test B flooded paddy test; settings: Cyperus difformis, 360 h, Flood, 250 g ai/ha; visually evaluated after 13 to 15 d; read-out: Plant response rating, Sedge, Umbrella (0 to 100 scale where 0 is no effect and 100 is complete control)
Procedure, shortened: as §2

CN1C[C@H](c2ccc(Br)cc2)[C@@H](C(=O)Nc2ccc(F)c(F)c2F)C1=O [Compound 1393]
pest or weed control at 31 g/ha [1]: 40% | pest or weed control at 125 g/ha [1]: 70% | pest or weed control at 31 g/ha [2]: 40% | pest or weed control at 125 g/ha [2]: 90% | pest or weed control at 31 g/ha [3]: 80% | pest or weed control at 125 g/ha [3]: 90% | pest or weed control at 31 g/ha [4]: 30% | pest or weed control at 125 g/ha [4]: 80% | pest or weed control at 31 g/ha [5]: 30% | pest or weed control at 125 g/ha [5]: 90% | pest or weed control at 31 g/ha [6]: 0% | pest or weed control at 125 g/ha [6]: 20% | pest or weed control at 31 g/ha [7]: 50% | pest or weed control at 125 g/ha [7]: 60% | pest or weed control at 31 g/ha [8]: 30% | pest or weed control at 125 g/ha [8]: 70% | pest or weed control at 31 g/ha [9]: 70% | pest or weed control at 125 g/ha [9]: 90% | pest or weed control at 31 g/ha [10]: 20% | pest or weed control at 125 g/ha [10]: 30% | plant injury at 31 g/ha [11]: 0% | Corn plant response rating (crop injury, 0 = no effect, 100 = complete kill) at 125 g/ha [11]: 80% | pest or weed control at 31 g/ha [12]: 70% | pest or weed control at 125 g/ha [12]: 90% | pest or weed control at 31 g/ha [13]: 40% | pest or weed control at 125 g/ha [13]: 60% | pest or weed control at 31 g/ha [14]: 0% | pest or weed control at 125 g/ha [14]: 50% | pest or weed control at 31 g/ha [15]: 0% | pest or weed control at 125 g/ha [15]: 20% | plant injury at 31 g/ha [16]: 0% | plant injury at 125 g/ha [16]: 30% | pest or weed control at 250 g/ha [17]: 85% | pest or weed control at 250 g/ha [18]: 100% | pest or weed control at 250 g/ha [19]: 55% | pest or weed control at 250 g/ha [20]: 0%

Cc1ccc([C@H]2CN(C)C(=O)[C@@H]2C(=O)Nc2cccnc2F)cc1 [Compound 1398]
pest or weed control at 31 g/ha [1]: 100% | pest or weed control at 125 g/ha [1]: 90% | pest or weed control at 31 g/ha [2]: 100% | pest or weed control at 125 g/ha [2]: 100% | pest or weed control at 31 g/ha [3]: 100% | pest or weed control at 125 g/ha [3]: 100% | pest or weed control at 31 g/ha [4]: 0% | pest or weed control at 125 g/ha [4]: 50% | pest or weed control at 31 g/ha [5]: 50% | pest or weed control at 125 g/ha [5]: 90% | pest or weed control at 31 g/ha [6]: 0% | pest or weed control at 125 g/ha [6]: 70% | pest or weed control at 31 g/ha [7]: 30% | pest or weed control at 125 g/ha [7]: 50% | pest or weed control at 31 g/ha [8]: 20% | pest or weed control at 125 g/ha [8]: 60% | pest or weed control at 31 g/ha [9]: 90% | pest or weed control at 125 g/ha [9]: 100% | pest or weed control at 31 g/ha [10]: 20% | pest or weed control at 125 g/ha [10]: 60% | plant injury at 31 g/ha [11]: 0% | Corn plant response rating (crop injury, 0 = no effect, 100 = complete kill) at 125 g/ha [11]: 40% | pest or weed control at 31 g/ha [12]: 90% | pest or weed control at 125 g/ha [12]: 90% | pest or weed control at 31 g/ha [13]: 0% | pest or weed control at 125 g/ha [13]: 0% | pest or weed control at 31 g/ha [14]: 0% | pest or weed control at 125 g/ha [14]: 30% | pest or weed control at 31 g/ha [15]: 0% | pest or weed control at 125 g/ha [15]: 40% | plant injury at 31 g/ha [16]: 0% | plant injury at 125 g/ha [16]: 60% | pest or weed control at 250 g/ha [17]: 80% | pest or weed control at 250 g/ha [18]: 100% | pest or weed control at 250 g/ha [19]: 15% | pest or weed control at 250 g/ha [20]: 0%
